Data on eleven compounds can be found in EP0044527A1, “Substituted derivatives of benzyl triesters of cyclic adenosin-3',5'-phosphate, method for their preparation and pharmaceutical compositions containing them” (priority 1980, dated 1982).

SMILES strings stand for the structures. Read-outs that look alike come from different tables or passages of the source.

The subject of data set [1] is Trachealspangen-Kette des Meerschweinchens. Put plainly: Relaxation of spontaneously contracted tracheal ring chain in vitro, relative to (-)isoprenaline maximum. In kind it is cell-based, Meerschweinchen. The settings on record: for EC50: Cavia porcellus, Dosis der halbmaximal möglichen Relaxation, Relaxation relative to (-)Isoprenalin 10^-6 Mol/l, read-out: ED50 (the source's name); for Relative Wirkungsstärke (Theophyllin = 1,00): im Vergleich zu Theophyllin. The protocol: Weiterhin wurde die relaxierende Wirkung erfindungsgemäßer Verbindungen auf die Trachealspangen-Kette des Meerschweinchens in vitro geprüft: • Vier parallele, aus jeweils 6 Einzelringen bestehende Trachealspangen-Ketten des Meerschweinchens (♂ und $, 430 - 600 g) im Organbad (5 ml, Krebs-Henseleit-Lösung mit Zusatz von Phentolamin (10^-5 Mol/l, 37°C, Vorspannung der Organe 2 g, Begasung mit Carbogen) entwickeln nach etwa 20 bis 30 Minuten eine stabile, tonische Spontankontraktur. An diesen dauerkontrahierten Organen kann unter isometrischen Meßbedingungen durch Applikation der Prüfsubstanz in kumulativhalblogarithmisch ansteigender Konzentration (z.B. 1x10-^6 + 2x-10^-6 + 7x10^-6 + 2x10^-5 usw. Mol/l) eine Relaxation herbeigeführt werden, wobei nach jeder Einzeldosis der Testsubstanz eine konstante Relaxations-Antwort abgewartet wird, bevor die nächst höhere Konzentration appliziert wird. Ober einen Zeitraum von 20 bis 30 Minuten wird somit eine vollständige Dosis-Wirkungskurve der Testsubstanz erhalten. Die jeweilige Relaxation wird als Prozentbruchteil der durch Gabe von (-)Isoprenalin (10^-6 Mol/1) maximal erreichbaren Relaxation ausgedrückt.
In Tabelle IV sind die ED50 (Dosis der halbmaximal möglichen Relaxation) und die relative Wirkungsstärke im Vergleich zu Theophyllin für erfindungsgemäße Verbindungen angegeben.

Data set [2] relates to Papillarmuskeln aus dem rechten Ventrikel des Meerschweinchenherzens. Put plainly: Positive inotropic effect on isolated papillary muscle, isometric force, with or without phosphodiesterase inhibitor. The data set is classed as cell-based, Meerschweinchen. Particulars: for minimal effective concentration: read-out: Schwellenkonz. The protocol:
Zur Bestimmung positiv inotroper Wirkungen wurden Papillarmuskeln aus dem rechten Ventrikel des Meerschweinchenherzens verwendet. Die adrenergen Nervenendigungen waren frei von Noradrenalin (Katecholamin-Entspeicherung durch intraperitoneale Injektion von 5 mg/kg Reserpin 24 Stunden vor Präparation der Tiere). Die Aufhängung der Muskeln erfolgte an einem induktiven Kraftaufnehmer in einer mit Sauerstoff gesättigten physiologischen Nährlösung (Volumen 50 ml). Die Kraftregistrierung erfolgte isometrisch, Kontraktionskurven wurden mittels eines Tintenschreibers aufgezeichnet und dann analysiert. Vor Zugabe der Testsubstanz wurden die Muskeln bei konstanter Reizung (Frequenz 0,2 Hz, Reizdauer 1 ms) bis zum Erreichen eines stationären Zustands ("steady state") der Kraft in der Nährlösung äquilibriert. Die Konzentration der Testsubstanz wurde dann erhöht, wenn die Kraft innerhalb von 10 min nicht weiter zunahm.
In der folgenden Tabelle II sind die Konzentrationen der einzelnen Testsubstanzen aufgetragen, bei denen der positiv inotrope Effekt gerade erkennbar war (Schwellenkonzentration) oder 50 % der maximalen Kraftzunahme erreichte (EC50). Diese Werte wurden im unteren Teil der Tabelle denen bereits bekannter Testsubstanzen gegenübergestellt. Weiterhin werden Schwellenkonzentrationen und EC50-Werte für die aufgeführten Testsubstanzen in Anwesenheit des Phosphodiesterase-Hemmstoffs 1-Methyl-3-isobutylxanthin (IBMX) (2 x 10^-5 Mol/l) angegeben. Es resultiert eine Verschiebung zu 30 - 40-fach niedrigeren Konzentrationen im Vergleich zu den Werten ohne Phophodiesterase-Hemmstoff. Ein ähnlicher Synergismus wurde auch mit Papaverin (1 x 10^-5 Mol/l) und mit Theophyllin (3 x 10-^4 Mol/1) beobachtet.

Data set [3] can be described thus: Partition coefficient octanol/buffer pH 7.4 (lg P). In kind it is physicochemical. Particulars: Octanol/Puffer. The text has this: Weitere physikalische Daten finden sich in der folgenden Tabelle I, die auch zusätzliche beispielhaft hergestellte erfindungsgemäße Verbindungen und deren physikalische Daten enthält. Dabei bedeutet P den Verteilungskoeffizienten Octanol/Puffer, pH 7,4: P = [formula]

In data set [4] the test system is isolierte Trachealstreifen des Meerschweinchens. Nature of the data set: Relaxation of isolated tracheal strips (smooth muscle of the respiratory tract). The data set is classed as cell-based, Meerschweinchen. Particulars: Cavia porcellus, read-out: Abnahme der Muskelspannung (T) in % des Kontrollwertes. The source says:
Zur Bestimmung der erschlaffenden Wirkung von 8-CH3S-cAMP-OCH2C6H5 (Verbindung 2) auf die glatte Muskulatur des Respirationstraktes wurden isolierte Trachealstreifen des Meerschweinchens verwendet. Aufhängung der Präparate erfolgte wie bereits beschrieben. Nach Vorgabe einer geeigneten Testspannung (0,8 g) wurde die erschlaffende Wirkung der Testsubstanz in Abhängigkeit von der Konzentration getestet. Nach Auswaschen der Testsubstanz wurde der Versuch mit einem bereits bekannten cAMP-Derivat (Dibutyryl-cAMP, Vergleichsverbindung 1) wiederholt.

Data set [5] relates to isoliertes Meerschweinchen-Myokard. Particulars: Stand der Technik; cited from earlier work.
The mark [6] stands for this setting: 50 % der maximalen Kraftzunahme, in Anwesenheit von IBMX (2 x 10^-5 Mol/l), read-out: EC50 + 20 µMol IBMX.
Where [7] appears, read: 50 % der maximalen Kraftzunahme, ohne IBMX, read-out: EC50.
[8] abbreviates: positiv inotroper Effekt gerade erkennbar, in Anwesenheit von IBMX (2 x 10^-5 Mol/l).
[9] abbreviates: positiv inotroper Effekt gerade erkennbar, ohne IBMX.
Where [10] appears, read: pH 7, Diastereomerengemisch, pH 7,4, read-out: lg P Gemisch.
Setting [11] is: pH 7, Konfig. ax, pH 7,4, read-out: lg P.
Setting [12] is: pH 7, Konfig. äq, pH 7,4, read-out: lg P.
Where [13] appears, read: pH 7, Vergleichsverbindungen, pH 7,4, read-out: lg P - Werte.

`Cn1c(=O)c2[nH]cnc2n(C)c1=O` [Theophyllin, reference compound]: in data set [1], the EC50 amounted to 130 µM and the “Relative Wirkungsstärke (Theophyllin = 1,00)” value (“Relative Wirkungsstärke” below) is 1,00.
For `Nc1ncnc2c1nc(Br)n2[C@@H]1O[C@@H]2COP(=O)(OCc3ccccc3)O[C@H]2[C@H]1O` (some centres unmarked) [Verbindung 1, 8-Brom-adenosin-3',5'-monophosphorsäurebenzylester], the figures for the EC50 in data set [2] (setting [6]), in data set [2] (setting [7]) and in data set [1] were 1.5 µM, 10 µM and 7 µM, respectively. For the same compound, the “Schwellenkonz. + 20 µMol IBMX” value in data set [2] (setting [8]) is 3e-07 mol/L. Besides, the minimal effective concentration in data set [2] (setting [9]) came to 3 µM. Moreover, the “Relative Wirkungsstärke” value in data set [1] was 18,5. Moreover, the logD in data set [3] (setting [10]) stood at 1.58; in data set [3] (setting [11]), 1.61; in data set [3] (setting [12]), 1.54.
Consider `CSc1nc2c(N)ncnc2n1[C@@H]1O[C@@H]2COP(=O)(OCc3ccccc3)O[C@H]2[C@H]1O` (some centres unmarked) [Verbindung 2, 8-Methylthio-adenosin-3',5^1-monophosphorsäurebenzylester], for which, in data set [2], the EC50 worked out at 10 µM and the minimal effective concentration was found to be 3 µM. Moreover, the “Schwellenkonz. + 20 µMol IBMX” value in data set [2] (setting [8]) was 1e-07 mol/L. Moreover, the EC50 in data set [2] (read-out: EC50 + 20 µMol IBMX) worked out at 0.45 µM. For the same compound, in data set [4], the inhibition at 1 µM turned out to be 20%, the inhibition at 3 µM came to 85%, the inhibition at 10 µM stood at 100% and the inhibition at 30 µM is 100%. Moreover, the logD in data set [3] (setting [10]) amounted to 1.62. The logD in data set [3] (setting [11]) amounted to 1.55. In data set [3] (setting [12]), the logD was found to be 1.7.
For the compound `Nc1ncnc2c1nc(SCc1ccccc1)n2[C@@H]1O[C@@H]2COP(=O)(OCc3ccccc3)O[C@H]2[C@H]1O` (some centres unmarked) [Verbindung 3, 8-Benzylthioadenosin-3',5'-monophosphorsäurebenzyltriester], the EC50 in data set [2] (setting [6]) was found to be 0.6 µM; in data set [2] (setting [7]), 20 µM. Moreover, the “Schwellenkonz. + 20 µMol IBMX” value in data set [2] (setting [8]) came out at 1e-07 mol/L. Also, the minimal effective concentration in data set [2] (setting [9]) came out at 10 µM. The logD in data set [3] (setting [10]) worked out at 1.92; in data set [3] (setting [11]), 1.96; in data set [3] (setting [12]), 1.88.
Turning to `Nc1ncnc2c1nc([Se]Cc1ccccc1)n2[C@@H]1O[C@@H]2COP(=O)(OCc3ccccc3)O[C@H]2[C@H]1O` (some centres unmarked) [Verbindung 4, 8-Benzylseleno-adenosin-3',5'-monophosphorsäurebenzylester], the EC50 came out at 10 µM in data set [2] and 0.55 µM in data set [2] (read-out: EC50 + 20 µMol IBMX). For the same compound, the “Schwellenkonz. + 20 µMol IBMX” value in data set [2] (setting [8]) is 1e-07 mol/L. Further, the minimal effective concentration in data set [2] was determined as 3 µM. Further, the logD in data set [3] (setting [10]) was found to be 1.67; in data set [3] (setting [11]) it was 1.7; in data set [3] (setting [12]) it was 1.64.
For the compound `Nc1ncnc2c1nc(Sc1ccc(Cl)cc1)n2[C@@H]1O[C@@H]2COP(=O)(OCc3ccccc3)O[C@H]2[C@H]1O` (some centres unmarked) [Verbindung 5, 8-(4-Chlor-phenylthio)-adenosin-3',5'-monophosphorsäurebenzylester], the figures for the EC50 in data set [2] (setting [6]), in data set [2] (setting [7]) and in data set [1] were 0.3 µM, 2 µM and 38 µM, respectively. Further, the “Schwellenkonz. + 20 µMol IBMX” value in data set [2] (setting [8]) amounted to 3e-08 mol/L. In data set [2] (setting [9]), the minimal effective concentration worked out at 0.1 µM. Further, in data set [1], the “Relative Wirkungsstärke” value was 3,4. Further, the logD in data set [3] (setting [10]) was found to be 2.24.
Consider `Nc1ncnc2c1nc(NCc1ccccc1)n2[C@@H]1O[C@@H]2COP(=O)(OCc3ccccc3)O[C@H]2[C@H]1O` (some centres unmarked) [Verbindung 6, 8-Benzylamino-adenosin-3^1,5^1-monophosphorsäurebenzylester], for which the EC50 in data set [2] (setting [6]) is 20 µM; in data set [2] (setting [7]), 40 µM. Further, the “Schwellenkonz. + 20 µMol IBMX” value in data set [2] (setting [8]) turned out to be 5e-06 mol/L. The minimal effective concentration in data set [2] (setting [9]) came out at 10 µM. Besides, the logD in data set [3] (setting [10]) came to 1.97.
For `CN(Cc1ccccc1)c1nc2c(N)ncnc2n1[C@@H]1O[C@@H]2COP(=O)(OCc3ccccc3)O[C@H]2[C@H]1O` (some centres unmarked) [Verbindung 7, 8-N-Benzyl-N-methylamino-adenosin-3',5'-monophosphorsäurebenzylester], the logD in data set [3] (setting [10]) is 2.29.
With `CCCC(=O)Nc1ncnc2c1ncn2[C@@H]1O[C@@H]2COP(=O)(O)O[C@H]2[C@H]1OC(=O)CCC` [Vergleichs-verbindung 1, Dibutyryl-cAMP, reference compound], the values for the EC50 in data set [2] (setting [6]) and in data set [2] (setting [7]) were 300 µM and 1000 µM, respectively. The “Schwellenkonz. + 20 µMol IBMX” value in data set [2] (setting [8]) was found to be 0.0001 mol/L. In addition, the minimal effective concentration in data set [2] (setting [9]) is 300 µM. The “inotrope Wirkung (Nebenwirkung)” value in data set [5] is reported as “anfangs negativ inotrope Wirkungen”. The inhibition at 1000 µM in data set [4] (1 x 10^-3 Mol/l) worked out at 75%. Further, the inhibition at 100 µM in data set [4] (1 x 10^-4 Mol/l) stood at 8%. The inhibition at 300 µM in data set [4] (3 x 10^-4 Mol/l) stood at 16%. Further, the logD in data set [3] (setting [13]) is -1.1.
Turning to `Nc1ncnc2c1nc(SCc1ccccc1)n2[C@@H]1O[C@@H]2COP(=O)(O)O[C@H]2[C@H]1O` [compound 2, 8-Benzylthioadenosin-3',5'-phosphorsäure, reference compound], the values for the EC50 in data set [2] (setting [6]) and in data set [2] (setting [7]) were 150 µM and 800 µM, respectively. Moreover, the “Schwellenkonz. + 20 µMol IBMX” value in data set [2] (setting [8]) was found to be 1e-05 mol/L. For the same compound, in data set [2] (setting [9]), the minimal effective concentration was 100 µM. Also, the logD in data set [3] (setting [13]) was -1.15.
With `Nc1ncnc2c1ncn2[C@@H]1O[C@@H]2COP(=O)(OCc3ccccc3)O[C@H]2[C@H]1O` (some centres unmarked) [compound 3, Adenosin-3',5'-phosphorsäurebenzylester, reference compound], the EC50 in data set [2] (setting [6]) came out at 60 µM; in data set [2] (setting [7]) it was 250 µM. In addition, the “Schwellenkonz. + 20 µMol IBMX” value in data set [2] (setting [8]) is 1e-05 mol/L. In addition, the minimal effective concentration in data set [2] (setting [9]) is 100 µM. For the same compound, the logD in data set [3] (setting [13]) worked out at 1.1.
